Test results taken from patent EP4663632A1, “COMPOUNDS USEFUL FOR THE MODULATION OF THE ACTIVITY OF STING” (Sulis Therapeutics ApS, priority 2024, dated 2025).

What was measured:
STING [1] = biological target: T1, STING (Homo sapiens, UniProt Q86WV6); test: Western Blot analysis for STING degradation (DC50) in HFF-1 cells; format: cell-based; set-up: host or cells: HFF-1 human foreskin fibroblasts; settings: 24h; reference protein beta-actin
Procedure: To assess STING degradation in human foreskin fibroblasts HFF-1 cells (ATCC, SCRC-1041) cells were seeded at a density of 60.000 cells/well in 24-well Nunclon Delta surface treated culture plate in DMEM growth medium (supplemented with 10% FBS, 1% Pen-strep). Cells were incubated over-night at 37°C 5% CO2 to allow adhesion. Next day growth medium was renewed and a 5x concentration of test compounds (2.5% DMSO) diluted in growth medium were added to the appropriate well. The final DMSO concentration were 0.5%. Cell culture plates were returned to the incubator for additional 24h.
For cell lysing for Western Blot analysis cell culture plates were brought to ice, supernatant was removed by aspiration and cells washed 2x in ice-cold DPBS. Cells were lysed in 65 µL of RIPA buffer supplemented with cOmplete ULTRA Tablets protease inhibitor cocktail, PIERCE Phosphatase inhibitor mini tablet, Benzonase and 10mM NaF for 20 min on ice. Lysates were collected, cleared by centrifugation (13000xg for 10 min at 4°C). Samples were either analysed directly or stored at -80°C until analysis.
For Western Blotting, total protein concentration in each lysate was determined using PIERCE Gold BCA Assay kit according to manufactures protocol. 6 µg of total protein was mixed with 2x Laemmli buffer containing DTT, boiled for 5 min at 95°C, cooled on ice and loaded into each well of a 4-20% Criterion TGX gel. Proteins were separated by electrophoresis, by running for 1h at 150V. After separation proteins were blotted onto a PVDF membrane by semi-dry transfer using Trans-Blot turbo system at pre-defined BioRad MIDI protocol; 25V, 1A (fixed) for 30 min. Membranes were blocked for 1h in 5% skim milk in TBS-T20 on a rocker at room temperature followed by washing and exposure to primary antibodies against human STING 1:1000 (Cell Signalling, #13647) or loading controls Vinculin 1:1000 (Cell Signalling, #13901) or beta-Actin 1:10000 (Sigma, A5441) all diluted in 5% BSA in TBS-T20. Membranes were probed over night at 4°C on a rocker. Membranes were washed 3x in TBS-T20 followed by exposure to secondary HRP-conjugated anti-rabbit antibody or HRP-conjugated anti-mouse antibody diluted 1:10000 in 5% skim milk in TBS-T20 as appropriate. Membranes were incubated for 1h at room temperature on a rocker, then washed 3x in TBS-T20.
For generating DC50 values, the intensity of individual bands was measured using imaged and expression levels were calculated as a ratio of STING intensities vs. Reference protein intensities and normalized to DMSO control. The normalized ratios were plotted on a XY curve in GraphPad Prism where DC50 was estimated using a 4-parameter non-linear regression fitting curve.

[2] = biological target: T2, C-terminal domain (CTD) of human STING (Homo sapiens, UniProt Q86WV6); test: STING binding FP assay III; set-up: recombinant human STING protein (155-379); settings: 10 nM STING (FP assay III according to the text); read-out: STING binding FP assay II, IC50
Procedure: (§1) The interaction between molecules and the C-terminal domain (CTD) of human STING was evaluated using a competition binding assay. In this assay, recombinant human STING protein (155-379) and a STING binding fluorescent probe were employed. Upon binding of the probe to STING, the rotation of the fluorescent probe is slowed due to the larger molecular size of the protein-bound complex. As a result, emitted light retains its plane of polarization, leading to an increase in fluorescence polarization. Molecules competing for the probe binding site displace the probe, which leads to rapid randomization of the polarization plane of the emitted light and a subsequent decrease in measured fluorescence polarization signal. Change in polarization was measured, allowing a comparative evaluation of the binding affinities of different compounds to the target protein.
(§2) The assay was performed in 96-well plates (ThermoFisher, cat.# 237108) containing 100µl : 10 µL test compound in 10% DMSO and buffer A (150 mM NaCl, 50 mM HEPES pH 7.5, 1 mM DTT) + 90 µL prepared master mix solution of: 4 nM fluorescein-labelled STING ligand (Probe 1; synthesis described above) in buffer A + 0.055% Tween-20 (v/v) and 35 nM STING in buffer A. Post mixing, plates were agitated at 600rpm and incubated for 20 min at room temperature. Subsequent measurements of the fluorescence polarization signal were made on a BioTek Synergy-H1 plate reader, using a polarization filter; Exc: 485/20 nm, Em: […]) with a gain-setting of 75. IC50 values were determined using a standard non-linear regression four-parameter curve fit in Graphpad Prism.
The procedure for STING binding FP assay III is the same as described for STING binding FP assay I, except for a lower STING concentration. In STING binding FP assay III, a concentration of 10 nM STING in buffer A was used.

[3] = biological target: T2, C-terminal domain (CTD) of human STING; test: STING binding FP assay II; set-up: recombinant human STING protein (155-379); settings: 7 nM STING
Procedure: as §1, §2
The procedure for STING binding FP assay II is the same as described for STING binding FP assay I, except for a lower STING concentration. In STING binding FP assay II, a concentration of 7 nM STING in buffer A was used.

STING [4] = biological target: T1, STING; test: Western Blot analysis of inhibition of STING activation in HFF-1 cells; format: cell-based; set-up: host or cells: HFF-1 human foreskin fibroblasts; settings: for STING, TBK1 and IRF1 phosphorylation: 2 h or 5 h
Procedure: To assess whether S1 STING ligands inhibit STING activation, primary human skin fibroblasts (Figure 5) or HFF-1 cells (Figure 6) were treated with various compounds which comprise only an S1 ligand domain and a Linker domain before undergoing Western Blot analysis as described below.
The cells were lysed and analysed on WB. […] The WB membrane was probed for p-STING, STING, p-IRF3, p-TBK1, and Vinculin.

T1 sequence (Q86WV6 whole entry): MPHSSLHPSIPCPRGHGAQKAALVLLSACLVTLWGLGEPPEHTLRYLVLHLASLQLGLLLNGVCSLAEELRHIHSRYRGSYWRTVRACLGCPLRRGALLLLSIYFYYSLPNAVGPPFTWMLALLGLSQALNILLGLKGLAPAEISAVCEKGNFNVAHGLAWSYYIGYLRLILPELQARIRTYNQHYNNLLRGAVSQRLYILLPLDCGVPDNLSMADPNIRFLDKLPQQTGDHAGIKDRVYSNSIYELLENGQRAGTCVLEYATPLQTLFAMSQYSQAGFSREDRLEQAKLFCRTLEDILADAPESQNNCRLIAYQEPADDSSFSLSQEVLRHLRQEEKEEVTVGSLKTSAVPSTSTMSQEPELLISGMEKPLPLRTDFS
T2 sequence (Q86WV6 155-379): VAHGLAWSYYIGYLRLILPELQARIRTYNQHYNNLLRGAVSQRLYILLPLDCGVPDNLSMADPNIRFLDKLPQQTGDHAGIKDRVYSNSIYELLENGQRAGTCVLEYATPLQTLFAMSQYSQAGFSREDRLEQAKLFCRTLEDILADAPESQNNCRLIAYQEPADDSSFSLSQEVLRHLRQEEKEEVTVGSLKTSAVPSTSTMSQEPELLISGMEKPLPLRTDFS

SMILES | DC50 (STING [1]) | IC50 [2] | IC50 [3] | further results
CCn1nc(C)cc1C(=O)N=c1n(C)c2cc(C(N)=O)ccc2n1CCC(CCn1c(=NC(=O)c2cc(C)nn2CC)n(C)c2cc(C(N)=O)ccc21)OCC(=O)NCCOCCOCCOCCOCCOCCNc1cccc2c1C(=O)N(C1CCC(=O)NC1=O)C2=O (stereo not shown) [Example 3, 1-(3-{[N-2-(2-{2-[2-(2-{2-[2-(2,6-Dioxo-3-piperidyl)-1,3-dioxo-4-isoindolinylamino]ethoxy}ethoxy)ethoxy]ethoxy}ethoxy)ethylcarbamoyl]methoxy}-5-{5-carbamoyl-2-[(1-ethyl-3-methyl-5-pyrazolyl)carbonylimino]-3-methyl-2,3-dihydro-1H-1 ,3-benzimidazol-1-yl}pentyl)-2-[(1-ethyl-3-methyl-5-pyrazolyl)carbonylimino]-3-methyl-2,3-dihydro-1H-1,3-benzimidazole-5-carboxamide] | 200 to 1000 nM | – | – | –
CCn1nc(C)cc1C(=O)N=c1n(C)c2cc(C(N)=O)ccc2n1CCC(CCn1c(=NC(=O)c2cc(C)nn2CC)n(C)c2cc(C(N)=O)ccc21)OCC(=O)NCCOCCOCCOCCOCCC(=O)NCCOCCNc1cccc2c1C(=O)N(C1CCC(=O)NC1=O)C2=O (stereo not shown) [Example 6, N-(2-{2-[2-(2,6-Dioxo-3-piperidyl)-1,3-dioxo-4-isoindolinylamino]ethoxy}ethyl)15-{[(3-{5-carbamoyl-2-[(1-ethyl-3-methyl-5-pyrazolyl)carbonylimino]-3-methyl-2,3-dihydro-1H-1 ,3-benzimidazol-1-yl}-1-(2-{5-carbamoyl-2-[(1-ethyl-3-methyl-5-pyrazolyl)carbonylimino]-3-methyl-2,3-dihydro-1H-1 ,3-benzimidazol-1-yl}ethyl)propoxy)methyl]carbonylamino}-4,7,10,13-tetraoxapentadecanamide] | 200 to 1000 nM | 2.6 nM | – | –
CCn1nc(C)cc1C(=O)N=c1n(C)c2cc(C(N)=O)ccc2n1CCC(CCn1c(=NC(=O)c2cc(C)nn2CC)n(C)c2cc(C(N)=O)ccc21)OCC(=O)NCCOCCOCCOCCOCCC(=O)NCCOCCOCCOCCNc1cccc2c1C(=O)N(C1CCC(=O)NC1=O)C2=O (stereo not shown) [Example 11, N-{2-[2-(2-{2-[2-(2,6-Dioxo-3-piperidyl)-1,3-dioxo-4-isoindolinylamino]ethoxy}ethoxy)ethoxy]ethyl}15-{[(3-{5-carbamoyl-2-[(1-ethyl-3-methyl-5-pyrazolyl)carbonylimino]-3-methyl-2,3-dihydro-1H-1,3-benzimidazol-1-yl}-1-(2-{5-carbamoyl-2-[(1-ethyl-3-methyl-5-pyrazolyl)carbonylimino]-3-methyl-2,3-dihydro-1H-1,3-benzimidazol-1-yl}ethyl)propoxy)methyl]carbonylamino}-4,7,10,13-tetraoxapentadecanamide] | < 200 nM | 5.3 nM | – | –
CCn1nc(C)cc1C(=O)N=c1n(C)c2cc(C(N)=O)ccc2n1CCC(CCn1c(=NC(=O)c2cc(C)nn2CC)n(C)c2cc(C(N)=O)ccc21)OCC(=O)NCCOCCOCCNc1cccc2c1C(=O)N(C1CCC(=O)NC1=O)C2=O (stereo not shown) [Example 12, 1-(3-{[N-2-(2-{2-[2-(2,6-Dioxo-3-piperidyl)-1,3-dioxo-4-isoindolinylamino]ethoxy}ethoxy)ethylcarbamoyl]methoxy}-5-{5-carbamoyl-2-[(1-ethyl-3-methyl-5-pyrazolyl)carbonylimino]-3-methyl-2,3-dihydro-1H-1,3-benzimidazol-1-yl}pentyl)-2-[(1-ethyl-3-methyl-5-pyrazolyl)carbonylimino]-3-methyl-2,3-dihydro-1H-1 ,3-benzimidazole-5-carboxamide] | – | – | 2.1 nM | –
CCn1nc(C)cc1C(=O)/N=c1\n(C)c2cc(C(N)=O)ccc2n1CCC(CCn1/c(=N/C(=O)c2cc(C)nn2CC)n(C)c2cc(C(N)=O)ccc21)OCC(=O)NCCOCCOCC(=O)N[C@H](C(=O)N1C[C@H](O)C[C@H]1C(=O)NCc1ccc(-c2scnc2C)cc1)C(C)(C)C (stereo partly shown) [Example 15] | – | – | 1.7 nM | –
CCn1nc(C)cc1C(=O)N=c1n(C)c2cc(C(N)=O)ccc2n1CCC(CCn1c(=NC(=O)c2cc(C)nn2CC)n(C)c2cc(C(N)=O)ccc21)OCC(=O)NCCOCCOCCOCCOCCC(=O)NCCOCCOCCOCCOCCOc1cccc(C(=O)c2csc([C@@H]3CCCN3C(=O)[C@@H](NC(=O)[C@H](C)NC)C3CCCCC3)n2)c1 (stereo partly shown) [Example 17] | – | – | 7.9 nM | –
CCn1nc(C)cc1C(=O)N=c1n(C)c2cc(C(N)=O)ccc2n1CCC(CCn1c(=NC(=O)c2cc(C)nn2CC)n(C)c2cc(C(N)=O)ccc21)OCC(=O)NCCOCCOCCOCCOCCC(=O)NCCOCCOCCNc1cccc2c1C(=O)N(C1CCC(=O)NC1=O)C2=O (stereo not shown) [Example 23, N-[2-(2-{2-[2-(2,6-Dioxo-3-piperidyl)-1,3-dioxo-4-isoindolinylamino]ethoxy}ethoxy)ethyl]15-{[(3-{5-carbamoyl-2-[(1-ethyl-3-methyl-5-pyrazolyl)carbonylimino]-3-methyl-2,3-dihydro-1H-1,3-benzimidazol-1-yl}-1-(2-{5-carbamoyl-2-[(1-ethyl-3-methyl-5-pyrazolyl)carbonylimino]-3-methyl-2,3-dihydro-1H-1,3-benzimidazol-1-yl}ethyl)propoxy)methyl]carbonylamino}-4,7,10,13-tetraoxapentadecanamide] | 200 to 1000 nM | 2.9 nM | – | –
CCn1nc(C)cc1C(=O)N=c1n(C)c2cc(C(N)=O)ccc2n1CCC(CCn1c(=NC(=O)c2cc(C)nn2CC)n(C)c2cc(C(N)=O)ccc21)OCC(=O)N1CCOC[C@@H]1c1ccccc1 (stereo partly drawn) [Example A30, 1-(3-{2-[(S)-3-Phenyl-4-morpholinyl]-2-oxoethoxy}-5-{5-carbamoyl-2-[(1-ethyl-3-methyl-5-pyrazolyl)carbonylimino]-3-methyl-2,3-dihydro-1H-1,3-benzimidazol-1-yl}pentyl)-2-[(1-ethyl-3-methyl-5-pyrazolyl)carbonylimino]-3-methyl-2,3-dihydro-1H-1,3-benzimidazole-5-carboxamide] | – | – | – | STING, TBK1 and IRF1 phosphorylation (STING [4]; 5 µM for 15 min prior to 300 nM diABZI): lower compared to cells treated with diABZI c3 alone; STING, TBK1 and IRF1 phosphorylation (STING [4]; 5 µM for 15 min prior to 8 µg/mL cGAMP): lower compared to cells treated with cGAMP alone; phosphorylation of STING, IRF1 or TBK1 (agonism) (STING [4]; compound as single agent, no activation): no phosphorylation of STING, IRF1 or TBK1 was observed
